# Test results reported in patent US20220411785A1, “LIBRARY OF BARCODED EXTRACELLULAR VESICLES” (The University of Tokyo, priority 2019, published 2022).
# Test system: HEK293T cells expressing CD63-nanoLuc
# Assay: EV secretion level after GSK-A1 (nanoLuc luminescence assay / nanoparticle tracking analysis)
# Type: cell-based
# Conditions: addition of GSK-A1; control without GSK-A1 set as 1; nluc activity in culture supernatant or NTA
# Description: A PI4KA inhibitor, GSK-A1, was administered to HEK293T cells expressing CD63-nanoLuc (pDB30), and the amount of secreted extracellular vesicles was measured by luminescence assay (Promega Corporation, Nanoglo luciferase assay system) that measures the nluc activity in a culture supernatant or by nanoparticle tracking analysis (NTA) using Nanosight (Malvern Panalytical Ltd.). As a control, the same experiment was performed without administering GSK-A1, and the EV secretion level at each GSK-A1 concentration was calculated by setting the EV secretion level of the control as 1.
compound,measurement,value
"COc1ncc(-c2ccc3nc(N)n(-c4ccc(N5CCOCC5)cc4)c3c2)cc1S(=O)(=O)Nc1ccccc1F [GSK-A1, 5-(2-amino-1-(4-morpholinophenyl)-1H-benzo[d]imidazol-6-yl)-N-(2-fluorophenyl)-2-methoxypyridine-3-sulfonamide]",secretion level of a CD63 positive extracellular vesicle,increased
